Measured values taken from patent US20260048047A1, “SMALL-MOLECULE ACTIVATORS OF MYCOBACTERIUM TUBERCULOSIS ADENYLYL CYCLASE” (priority 2022, published 2026).

Assays:
M. tuberculosis = assay: Extracellular activity against M. tuberculosis in cholesterol media (Alamar Blue reduction assay); type: cell-based, Mycobacterium tuberculosis
Rv1625c = type: cell-based, Mycobacterium tuberculosis

Compound	Inhibition of ΔRv1625c strain in cholesterol media (M. tuberculosis)	cAMP induction in ΔRv1625c mutant (Rv1625c)	Fold greater susceptibility of rv1625c overexpression strain (2×rv1625c) than WT (M. tuberculosis; 2×rv1625c vs WT, 7H12+cholesterol)
Cn1ncnc1CC(=O)N1CCC(c2nc(-c3ccc(Cl)c(Cl)c3)no2)CC1 [mCLB073, 1-(4-(3-(3,4-dichlorophenyl)-1,2,4-oxadiazol-5-yl)-1-piperidinyl)-2-(2-methyl-2H-1,2,4-triazol-3-yl)-1-ethanone]	refractory	–	–
Cc1nonc1CC(=O)N1CCC(n2nnc(-c3ccc(F)cc3)n2)CC1 [Compound V-59, 1-(4-(5-(4-fluorophenyl)-2H-tetrazol-2-yl)piperidin-1-yl)-2-(4-methyl-1,2,5-oxadiazol-3-yl)ethan-1-one]	refractory	did not affect	~15 fold
